Measured values: patent publication US20210277003A1, “OGA INHIBITOR COMPOUNDS” (Janssen Pharmaceutica NV, priority 2018, published 2021)

Biological target: T1, recombinant human Meningioma Expressed Antigen 5 (MGEA5), also referred to as O-GlcNAcase (OGA) (Homo sapiens, UniProt O60502)
T1 construct: Full length OGA enzyme was purchased at OnGene (cat #TP322411); purchased OnGene (so in the source)
T1 sequence (O60502 1-916): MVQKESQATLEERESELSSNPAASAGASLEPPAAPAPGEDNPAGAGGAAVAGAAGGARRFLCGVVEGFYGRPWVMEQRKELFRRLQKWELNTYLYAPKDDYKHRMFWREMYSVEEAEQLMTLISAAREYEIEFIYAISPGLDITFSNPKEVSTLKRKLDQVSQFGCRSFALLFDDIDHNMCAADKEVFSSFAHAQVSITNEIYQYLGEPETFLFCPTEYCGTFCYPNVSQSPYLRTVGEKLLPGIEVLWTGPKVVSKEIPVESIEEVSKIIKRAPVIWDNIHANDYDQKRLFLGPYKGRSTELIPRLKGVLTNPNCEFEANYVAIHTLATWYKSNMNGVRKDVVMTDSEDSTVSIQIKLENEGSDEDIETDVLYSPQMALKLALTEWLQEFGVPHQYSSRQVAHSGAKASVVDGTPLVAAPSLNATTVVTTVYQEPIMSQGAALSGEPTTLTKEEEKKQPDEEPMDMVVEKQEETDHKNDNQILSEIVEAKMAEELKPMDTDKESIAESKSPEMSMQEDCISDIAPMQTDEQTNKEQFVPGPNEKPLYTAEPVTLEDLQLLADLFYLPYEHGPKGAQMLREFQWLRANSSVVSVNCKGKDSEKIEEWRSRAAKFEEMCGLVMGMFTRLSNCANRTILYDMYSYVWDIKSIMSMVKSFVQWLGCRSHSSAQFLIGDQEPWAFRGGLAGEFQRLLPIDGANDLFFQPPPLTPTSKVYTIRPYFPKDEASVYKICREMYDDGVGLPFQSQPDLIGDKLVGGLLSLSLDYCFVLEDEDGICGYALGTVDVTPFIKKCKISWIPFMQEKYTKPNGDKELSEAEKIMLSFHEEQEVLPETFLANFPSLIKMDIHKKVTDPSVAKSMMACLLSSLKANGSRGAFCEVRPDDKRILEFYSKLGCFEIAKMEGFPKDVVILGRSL
Test: OGA biochemical assay: inhibition of hydrolysis of fluorescein mono-ß-D-N-Acetyl-Glucosamine (FM-GlcNAc), fluorescence readout
Conditions: FM-GlcNAc substrate; for Emax: read-out: Enzymatic Emax (%); for IC50: read-out: Enzymatic hOGA, pIC50 (converted)
Excerpt: The assay is based on the inhibition of the hydrolysis of fluorescein mono-ß-D-N-Acetyl-Glucosamine (FM-GlcNAc) (Mariappa et al. 2015, Biochem J 470:255) by the recombinant human Meningioma Expressed Antigen 5 (MGEA5), also referred to as O-GlcNAcase (OGA). The hydrolysis FM-GlcNAc (Marker Gene technologies, cat #M1485) results in the formation of ß-D-N-glucosamineacetate and fluorescein. The fluorescence of the latter can be measured at excitation wavelength 485 nm and emission wavelength 538 nm. An increase in enzyme activity results in an increase in fluorescence signal. Full length OGA enzyme was purchased at OnGene (cat #TP322411). The enzyme was stored in 25 mM Tris.HCl, pH 7.3, 100 mM glycine, 10% glycerol at −20° C. Thiamet G and GlcNAcStatin were tested as reference compounds (Yuzwa et al. 2008 Nature Chemical Biology 4:483; Yuzwa et al. 2012 Nature Chemical Biology 8:393). The assay was performed in 200 mM Citrate/phosphate buffer supplemented with 0.005% Tween-20. 35.6 g Na2HPO4 2 H2O (Sigma, #C0759) were dissolved in 1 L water to obtain a 200 mM solution. 19.2 g citric acid (Merck, #1.06580) was dissolved in 1 L water to obtain a 100 mM solution. pH of the sodium phosphate solution was adjusted with the citric acid solution to 7.2. The buffer to stop the reaction consists of a 500 mM Carbonate buffer, pH 11.0. 734 mg FM-GlcNAc were dissolved in 5.48 mL DMSO to obtain a 250 mM solution and was stored at −20° C. OGA was used at a 2 nM concentration and FM-GlcNAc at a 100 uM final concentration. Dilutions were prepared in assay buffer. 50 nl of a compound dissolved in DMSO was dispensed on Black Proxiplate™ 384 Plus Assay plates (Perkin Elmer, #6008269) and 3 μl fl-OGA enzyme mix added subsequently. Plates were pre-incubated for 60 min at room temperature and then 2 μl FM-GlcNAc substrate mix added. […] Plates were briefly centrifuged for 1 min at 1000 rpm and incubate at room temperature for 6 h. To stop the reaction 5 μl STOP buffer were added and plates centrifuge again 1 min at 1000 rpm. Fluorescence was quantified in the Thermo Scientific Fluoroskan Ascent or the PerkinElmer EnVision with excitation wavelength 485 nm and emission wavelength 538 nm. For analysis a best-fit curve is fitted by a minimum sum of squares method. From this an IC50 value and Hill coefficient was obtained. High control (no inhibitor) and low control (saturating concentrations of standard inhibitor) were used to define the minimum and maximum values.

SMILES | Emax [%] | IC50 [nM] | Enzymatic hOGA; pIC50
Cc1ccnc(C)c1Nc1nccc2c1ccn2CCC1CCO1 (stereo not drawn) [Compound 21] | 96 | – | 6.61
CCCC(C)n1ccc2c(Nc3c(C)cncc3C)nccc21 (stereo not drawn) [Compound 33] | 99 | 309 | –
CCCCn1ccc2c(Nc3c(C)cnnc3C)nccc21 [Compound 17] | 102 | – | 6.94
Cc1ccnc(C)c1Nc1nccc2c1ccn2CC1COC1 [Compound 4] | 93 | – | 6.03
Cc1cncc(C(C)C)c1Nc1nccc2c1ccn2CC1COC1 [Compound 32] | 98 | 234 | –
Cc1cncc(C)c1Nc1nccc2c1ccn2CC1COC1 [Compound 29] | 88 | 1620 | –
CCn1ccc2c(Nc3c(C)cc(F)cc3C)nccc21 [Compound 37] | 101 | 251 | –
N#CCCCn1ccc2c(Nc3c(Cl)cncc3Cl)nccc21 [Compound 36] | 100 | 275 | –
CN(C)S(=O)(=O)Cn1ccc2c(Nc3c(Cl)cncc3Cl)nccc21 [Compound 3] | 92 | 933 | –
COCCn1ccc2c(Nc3c(Cl)cncc3Cl)nccc21 [Compound 28] | 83 | 2190 | –
Cc1ccnc(C)c1Nc1nccc2c1ccn2CC(F)(F)F [Compound 79] | 101 | 138 | –
CCCCn1ccc2c(Nc3c(C)cnc4c3OCCO4)nccc21 [Compound 20] | 102 | – | 7.4
Cc1ccnc(C)c1Nc1nccc2c1ccn2CC1(C)COC1 [Compound 22] | 99 | – | 6.54
Cc1cncc(Cl)c1Nc1nccc2c1ccn2CC1COC1 [Compound 30] | 93 | 1410 | –
Cc1ccnc(C)c1Nc1nccc2c1ccn2CC1CC1(F)F (stereo not drawn) [Compound 2] | 99 | 91.2 | –

Now from value to compound:

Emax [%] | IC50 [nM] | Enzymatic hOGA; pIC50 | SMILES
98.3 | 182 | – | Cc1ncnc(C(C)C)c1Nc1nccc2c1ccn2CCC(F)(F)F [Compound 192]
103 | – | 6.64 | CCC(C)(O)Cn1ccc2c(Nc3c(Cl)cc(F)cc3Cl)nccc21 (stereo not drawn) [Compound 106]
98.8 | 229 | – | Clc1cccc(Cl)c1Nc1nccc2c1ccn2Cc1ncc[nH]1 [Compound 191]
101 | – | 7.44 | CCC(O)Cn1ccc2c(Nc3c(C)ccnc3C)nccc21 (stereo not drawn) [Compound 93]
98 | – | 6.54 | Clc1cccc(Cl)c1Nc1nccc2c1ccn2CCC1COC1 [Compound 98]
98.1 | 562 | – | Cn1ccnc1Cn1ccc2c(Nc3c(Cl)cccc3Cl)nccc21 [Compound 168]
99.7 | – | 6.12 | Cc1ccnc(C)c1Nc1nccc2c1ccn2CCN1CC(F)(F)C1 [Compound 103]
99.2 | – | 6.77 | Cn1cnc(Cn2ccc3c(Nc4c(Cl)cc(F)cc4Cl)nccc32)c1 [Compound 120]
99 | 229 | – | CCCCn1ccc2c(Nc3c(C)cc(N(C)C(C)=O)cc3C)nccc21 [Compound 102]
99.2 | – | 6.56 | Fc1cc(Cl)c(Nc2nccc3c2ccn3Cc2cnco2)c(Cl)c1 [Compound 142]
101 | 37.2 | – | Fc1cnc(-n2ccc3c(Nc4c(Cl)cccc4Cl)nccc32)nc1 [Compound 164]
102 | – | 7.32 | CCC(C)(F)Cn1ccc2c(Nc3c(C)ccnc3C)nccc21 (stereo not drawn) [Compound 108]
101 | 38 | – | Cc1ccc(-n2ccc3c(Nc4c(Cl)cccc4Cl)nccc32)nc1 [Compound 165]
103 | – | 7.25 | Fc1cc(Cl)c(Nc2nccc3c2ccn3Cc2cocn2)c(Cl)c1 [Compound 121]
97.8 | 309 | – | Fc1cc(Cl)c(Nc2nccc3c2ccn3-c2ncco2)c(Cl)c1 [Compound 182]
99 | – | 6.86 | Cc1ccnc(C)c1Nc1nccc2c1ccn2CCC1CC1(F)F (stereo not drawn) [Compound 94]
102 | – | 7.62 | CCC(C)(F)Cn1ccc2c(Nc3c(Cl)cc(F)cc3Cl)nccc21 (stereo not drawn) [Compound 111]
92.7 | 794 | – | N#Cc1cnc(-n2ccc3c(Nc4c(Cl)cc(F)cc4Cl)nccc32)[nH]1 [Compound 181]
96.9 | – | 6.14 | CCC(Cn1ccc2c(Nc3c(Cl)cc(F)cc3Cl)nccc21)OC (stereo not drawn) [Compound 104]
100 | – | 7.41 | Cc1cnc(Cn2ccc3c(Nc4c(Cl)cc(F)cc4Cl)nccc32)o1 [Compound 143]
96.3 | 562 | – | Fc1cc(Cl)c(Nc2nccc3c2ccn3-c2c[nH]cn2)c(Cl)c1 [Compound 190]
